Measurements from US8778966B2, “Quinolinone derivatives as PARP and tank inhibitors” (Janssen Pharmaceutica, NV, priority 2007, dated 2014).

Assays:
[1] = biological target: T1, Human PARP-1 enzyme (Homo sapiens, UniProt P09874); assay: In vitro Scintillation Proximity Assay (SPA) for PARP-1 inhibitory activity; type: biochemical; details: read-out: in vitro SPA assay PARP-1 pIC50 (converted)
T1 construct: purchased Trevigen
How it was run: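 SPA assay: nicked-DNA-activated PARP-1 (0.1–0.2 μg/ml) ADP-ribosylates biotinylated histones (2 μg/ml) using [3H]-NAD+, 20 min at RT in Tris pH 8/DTT/MgCl2, stopped with 2 mM NAD+. Blank-subtracted cpm expressed as % control; IC50 by linear interpolation, reported as pIC50 (10−5 to 3×10−9 M tested).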

[2] = test system: PC3 cells; assay: EB1 Comet (microtubule disruption) assay; type: cell-based, human; details: 1 hour treatment; for minimal effective concentration: Homo sapiens, PC-3, 1 h, read-out: EB1 pLAC (converted)
How it was run: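 Readout is loss of Eb1 plus-end foci, scored by immunofluorescence microscopy, in PC3 cells after 1 h compound treatment at 37 °C with 0.6% final DMSO. LAC is defined as the lowest concentration leaving at least 50% of cells without Eb1 foci.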

T1 sequence (P09874 whole entry): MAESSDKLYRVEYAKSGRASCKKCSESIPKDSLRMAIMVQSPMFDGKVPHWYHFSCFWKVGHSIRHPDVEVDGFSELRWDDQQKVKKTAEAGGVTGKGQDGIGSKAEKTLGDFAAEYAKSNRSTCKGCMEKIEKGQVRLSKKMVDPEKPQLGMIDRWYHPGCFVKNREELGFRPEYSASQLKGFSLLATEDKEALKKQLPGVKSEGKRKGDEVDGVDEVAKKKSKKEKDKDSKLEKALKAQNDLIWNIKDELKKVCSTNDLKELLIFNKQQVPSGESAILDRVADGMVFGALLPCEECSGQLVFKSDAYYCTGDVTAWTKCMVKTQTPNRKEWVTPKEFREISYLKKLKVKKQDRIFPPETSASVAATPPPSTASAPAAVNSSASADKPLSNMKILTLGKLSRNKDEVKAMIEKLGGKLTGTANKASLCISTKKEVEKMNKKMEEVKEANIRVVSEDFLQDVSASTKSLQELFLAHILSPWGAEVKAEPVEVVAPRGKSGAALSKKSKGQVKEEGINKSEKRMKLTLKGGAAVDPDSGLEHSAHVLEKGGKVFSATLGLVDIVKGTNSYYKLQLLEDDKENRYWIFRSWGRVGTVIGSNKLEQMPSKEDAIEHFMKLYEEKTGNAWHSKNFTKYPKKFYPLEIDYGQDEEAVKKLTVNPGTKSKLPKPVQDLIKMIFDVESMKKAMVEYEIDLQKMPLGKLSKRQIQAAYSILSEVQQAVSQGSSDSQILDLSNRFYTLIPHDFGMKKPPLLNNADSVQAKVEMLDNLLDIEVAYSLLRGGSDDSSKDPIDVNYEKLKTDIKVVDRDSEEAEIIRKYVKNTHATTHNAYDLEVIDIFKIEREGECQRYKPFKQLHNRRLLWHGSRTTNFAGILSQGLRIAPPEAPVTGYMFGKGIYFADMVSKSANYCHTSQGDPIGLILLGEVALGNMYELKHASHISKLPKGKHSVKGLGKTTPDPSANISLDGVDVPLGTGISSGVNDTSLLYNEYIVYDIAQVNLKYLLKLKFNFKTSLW

Row | IC50 [1] [nM] | SMILES | minimal effective concentration [2] [µM] | EB1 pLAC [2]
1 | 631 | CCOc1ccccc1OCCC(C)(C#N)c1ccc2cc(CC)c(=O)[nH]c2c1 (centres unmarked) [Compound 142] | 1 | 
2 | 794 | CCc1cc2ccc(C(C)(C#N)CCOc3cccc(C)c3)cc2[nH]c1=O (centres unmarked) [Compound 143] | 1 | 
3 | 251 | CCc1cc2ccc(C(C)(C#N)CCOc3ccc(F)cc3)cc2[nH]c1=O (centres unmarked) [Compound 144] | 0.316 | 
4 | 200 | CCc1cc2ccc(C(C)(C#N)CCOc3ccccc3)cc2[nH]c1=O (centres unmarked) [Compound 145] | 1 | 
5 | 158 | CCc1cc2ccc(C(C)(C#N)CCOc3ccc(OC)cc3)cc2[nH]c1=O (centres unmarked) [Compound 147] | 1 | 
6 | 316 | CCc1cc2ccc(C(C)(C#N)CCOc3ccccc3C)cc2[nH]c1=O (centres unmarked) [Compound 148] | 0.316 | 
7 | 501 | CCc1cc2ccc(C(C)(C#N)CCOc3cccc(Cl)c3)cc2[nH]c1=O (centres unmarked) [Compound 151] | 1 | 
8 | 1260 | CCc1cc2ccc(C(C)(C#N)CCOc3ccc(Cl)cc3Cl)cc2[nH]c1=O (centres unmarked) [Compound 154] | 0.1 | 
9 | 316 | CCc1cc2ccc(C(C)(C#N)CC3CN(C)c4ccccc4O3)cc2[nH]c1=O (centres unmarked) [Compound 156] | 1 | 
10 | 1580 | CCc1cc2ccc(C(C)(C#N)CCOc3ccc4ccccc4c3)cc2[nH]c1=O (centres unmarked) [Compound 157] | 0.1 | 
11 | 1580 | CCc1cc2ccc(C(C)(C#N)CCOc3cccc4ccccc34)cc2[nH]c1=O (centres unmarked) [Compound 158] | 0.316 | 
12 | 794 | CCc1cc2ccc(C(C)(C#N)CCOc3ccc(Br)cc3)cc2[nH]c1=O (centres unmarked) [Compound 160] | 0.316 | 
13 | 251 | CCc1cc2ccc(C(C)(C#N)CCOc3ccc(C#N)cc3)cc2[nH]c1=O (centres unmarked) [Compound 161] | 0.316 | 
14 | 251 | CCc1cc2ccc(C(C)(C#N)Cc3cccc(CCC#N)c3)cc2[nH]c1=O (centres unmarked) [Compound 165] | 1 | 

Continued, compound first:

Row | SMILES | IC50 [1] [nM] | minimal effective concentration [2] [µM] | EB1 pLAC [2]
15 | CCc1cc2ccc(C(C)(C#N)Cc3cc(F)cc(Cl)c3)cc2[nH]c1=O (centres unmarked) [Compound 126] | 794 | 0.316 | 
16 | CCc1cc2ccc(C(C)(C#N)Cc3cc(F)cc(C(F)(F)F)c3)cc2[nH]c1=O (centres unmarked) [Compound 127] | 1000 | 1 | 
17 | CCc1cc2ccc(C(C)(C#N)Cc3cc(F)cc(F)c3)cc2[nH]c1=O (centres unmarked) [Compound 128] | 501 |  | 7.5
18 | CCc1cc2ccc(C(C)(C#N)Cc3cccc(S(C)(=O)=O)c3)cc2[nH]c1=O (centres unmarked) [Compound 129] | 631 | 1 | 
19 | CCc1cc2ccc(C(C)(C#N)Cc3cccc(Cl)c3F)cc2[nH]c1=O (centres unmarked) [Compound 130] | 631 | 0.1 | 
20 | CCc1cc2ccc(C(C)(C#N)Cc3cccc(C)c3F)cc2[nH]c1=O (centres unmarked) [Compound 132] | 1260 | 0.316 | 
21 | CCc1cc2ccc(C(C)(C#N)Cc3cccc(C(F)(F)F)c3F)cc2[nH]c1=O (centres unmarked) [Compound 134] | 1260 | 1 | 
22 | CCc1cc2ccc(C(C)(C#N)Cc3c(Cl)cccc3Cl)cc2[nH]c1=O (centres unmarked) [Compound 135] | 1000 | 1 | 
23 | CCc1cc2ccc(C(C)(C#N)Cc3c(Cl)cccc3Br)cc2[nH]c1=O (centres unmarked) [Compound 136] | 1580 | 1 | 
24 | CCc1cc2ccc(C(C)(C#N)Cc3ccc(F)cc3F)cc2[nH]c1=O (centres unmarked) [Compound 137] | 1260 | 1 | 
25 | CCc1cc2ccc(C(C)(C#N)Cc3c(F)cccc3F)cc2[nH]c1=O (centres unmarked) [Compound 138] | 1260 | 1 | 
26 | CCc1cc2ccc(C(C)(C#N)Cc3ccc(F)cc3Br)cc2[nH]c1=O (centres unmarked) [Compound 139] | 1260 | 0.316 | 
27 | CCc1cc2ccc(C(C)(C#N)Cc3cccc(Cl)c3)cc2[nH]c1=O (centres unmarked) [Compound 140] | 631 | 0.1 | 
28 | CCc1cc2ccc(C(C)(C#N)Cc3cc(Cl)cc(Cl)c3)cc2[nH]c1=O (centres unmarked) [Compound 141] | 1000 | 0.1 | 
